Assay results taken from patent publication US12059429B2, “Hornerin: a novel non-VEGF mediated angiogenic protein expressed in both human and mouse angiogenic endothelial cells and human pancreatic cancer cells” (University of Virginia Patent Foundation, priority 2018, dated 2024).

Test system: tumor vascularity
Assay: DCE-MRI and Ktrans measurement of L3.6pl tumors
Assay type: in vivo, mouse
Method: To assess the in vivo function of tumor vascularity, DCE-MRI was performed on a 7.0 T Clinscan small animal imaging system (Bruker, Ettlingen, Germany) using a 30 mm inner-diameter birdcage radiofrequency coil. Mice (N=7) were imaged prior to treating tumors with Hrnr and Scr siRNA and again 6 days after treatment. Mice treated with the VEGFR inhibitor AV-951 (N=5) were image pre-siRNA treatment and 6 days posttreatment. Mice were anesthetized with 1.25% isoflurane anesthesia, which was maintained during imaging. Respiration and ECG were monitored during imaging using an MRI-compatible system (SA Instruments, Stony Brook, NY, USA). An indwelling tail vein catheter was established for administration of the gadolinium contrast agent Gd-DTPA, which is required in DCE imaging. Mice were placed supine in the imaging system, and body temperature was maintained at 36° C.±1° C. using circulating, temperature controlled water. Tumors were localized using a spin-echo imaging sequence, and an imaging plane that transected both tumors was chosen for DCE imaging.
A dual-Gd-bolus DCE-MRI acquisition strategy (Christian et al., 2004) was employed, which uses a low dose of contrast agent to accurately acquire the undistorted Gd concentration vs. time curve in the blood pool and a higher dose of contrast agent to acquire the Gd concentration vs. time curve in the tumor with high signal-to-noise ratio, since Gd-DTPA is known to have signal saturation effects at high doses in the blood pool (Christian et al., 2004). […]

5′-GCAUGGAUCUUGUUGCGGUTT-3′ [Hrnr siRNA]
tumor concentration of Gd-DTPA (after 6 days of siRNA injection every other day, vs Scr siRNA): two-fold reduced | reduction in Ktrans (after 6 days of siRNA injections, vs control): 2.4 fold
